Source: US5846755A (priority 1995, dated 1998)
Like-named read-outs stand apart in the source and are kept apart here. Square brackets hold non-standard residues; d marks the D form. Peptide text beside a SMILES is read from it. * marks the point of attachment. Pip = O=C(O)[C@@H]1CCCCN1; Cbz = O=C(OCc1ccccc1)*

Columns and labels:
[1] = target: enzyme purified from the venom of Crotalus Adamanteus (hemorrhagin) (Crotalus adamanteus, UniProt P34179); type: biochemical
[2] = Resistance to proteolytic activity in stomach juices (rat stomach homogenate, HPLC); settings: 37° C.
Protocol: To check if the compounds of the present invention are resistant to proteolytic activity in stomach juices and, therefore, could be administered orally, the stomachs of fasting rats were homogenized in physiological solutions (1:1). 300 microliters of solutions of the compounds (1 mg/ml of saline) were incubated with 0.5 ml of stomach homogenates (37° C.).

[3] = target: T1, recombinant human gelatinase A (Homo sapiens, UniProt P08253); assay: In vitro effects on recombinant human gelatinase A; type: biochemical
T1 construct: purchased Strangeways Laboratories, Cambridge, UK
T1 sequence (P08253 110-660): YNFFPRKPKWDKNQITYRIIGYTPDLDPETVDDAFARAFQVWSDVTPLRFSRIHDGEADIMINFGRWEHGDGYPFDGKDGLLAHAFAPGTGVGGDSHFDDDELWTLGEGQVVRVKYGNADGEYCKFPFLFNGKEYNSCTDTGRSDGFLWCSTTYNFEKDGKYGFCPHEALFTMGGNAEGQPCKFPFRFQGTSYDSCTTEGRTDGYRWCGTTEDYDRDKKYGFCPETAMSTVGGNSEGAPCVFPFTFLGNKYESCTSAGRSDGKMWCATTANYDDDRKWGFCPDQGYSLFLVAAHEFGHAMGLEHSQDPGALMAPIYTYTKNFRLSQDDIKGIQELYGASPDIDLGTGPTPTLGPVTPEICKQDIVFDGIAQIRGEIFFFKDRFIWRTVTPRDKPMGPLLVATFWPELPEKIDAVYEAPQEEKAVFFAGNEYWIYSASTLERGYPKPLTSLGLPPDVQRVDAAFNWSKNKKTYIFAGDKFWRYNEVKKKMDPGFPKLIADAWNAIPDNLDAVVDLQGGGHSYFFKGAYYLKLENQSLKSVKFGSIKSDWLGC
Source text: Assays on human gelatinase A, an enzyme released in high concentration by any kind of tumor cells during the process of metastatization, and recognized also as a product of stimulated cells in many pathological processes, have been performed using the protein obtained by recombinant biotechnology (Strangeways Laboratories, Cambridge, UK). The enzymatic activity has been followed over time, measuring the amount of fluorescent substrate cleaved by the enzyme, in the presence or absence of synthetic compounds (Perkin Elmer L50 B fluorimeter).

[4] = target: T2, recombinant human gelatinase B (Homo sapiens, UniProt P14780); assay: In vitro effects on recombinant human gelatinase B; type: biochemical
T2 construct: purchased Stangeways Laboratories, Cambridge, UK (so in the source)
Protocol: Assays on human gelatinase B, another enzyme released by tumor cells, were performed using also, in this case, the protein obtained by recombinant biotechnology Stangeways Laboratories, Cambridge, UK). As usual, the enzymatic activity was followed over time, measuring the amount of fluorescent substrate cleaved by the enzyme, in the presence or absence of synthetic compounds (Perkin Elmer L50 B fluorimeter).

[5] = target: neutrophil collagenase (recombinant human) (Homo sapiens, UniProt P22894); assay: In vitro assays on recombinant human collagenase; type: biochemical
Protocol: Using the same enzymatic determination already described (fluorimetric detection of cleavage of a substrate peptide containing a fluorescent moiety), some of the compounds were tested on neutrophil collagenase, an enzyme described as participating in any kind of inflammatory reaction in mammalian bodies. In this case, the purified enxzyme was also obtained by recombinant means.

[6] = test system: human melanoma cell line VMM-5; assay: Matrigel-based invasion assay with human melanoma cells; type: cell-based; settings: Concentration 500 micro M, VMM-5 cells, 20 hours
Source text: In order to obtain information about the possible interference of the synthesized compounds on the ability of tumor cells to migrate through the body (metastatization), the human melanoma cell line VMM-5 was used in the matrigel-based invasion assay, in which basal membrane matrigel (Becton Dickinson) and tissue culture inserts with 8 microns pore size in 24 well tissue culture plates were used as Boyden chambers. The chambers were coated with diluted matrigel and allowed to dry overnight; they were then reconstituted with serum free medium, and melanoma cells (4,000,000/ml) were dispensed in each insert. In the lower chambers, a chemoattractant was included. The chambers were finally placed in a humidified CO2 incubator at 37° C., and incubated for 20 hours. The inserts were dried and the cells on the upper surface removed. The polycarbonate filters were fixed with methanol, stained with hematoxylin and eosin, and counted with a microscope. Inhibition of migration due to compounds has been expressed as a percentage of the total number of migrated cells in the control chambers containing only the buffer in which the compounds were dissolved.

Sequence of enzyme purified from the venom of Crotalus Adamanteus (hemorrhagin) (P34179 whole entry, looked up): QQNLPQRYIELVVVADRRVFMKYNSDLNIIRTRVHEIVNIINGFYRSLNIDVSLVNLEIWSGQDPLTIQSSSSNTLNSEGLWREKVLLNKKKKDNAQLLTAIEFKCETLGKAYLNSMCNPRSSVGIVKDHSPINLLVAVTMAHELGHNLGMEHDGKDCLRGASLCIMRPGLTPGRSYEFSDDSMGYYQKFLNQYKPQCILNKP
T2 sequence (P14780 94-707): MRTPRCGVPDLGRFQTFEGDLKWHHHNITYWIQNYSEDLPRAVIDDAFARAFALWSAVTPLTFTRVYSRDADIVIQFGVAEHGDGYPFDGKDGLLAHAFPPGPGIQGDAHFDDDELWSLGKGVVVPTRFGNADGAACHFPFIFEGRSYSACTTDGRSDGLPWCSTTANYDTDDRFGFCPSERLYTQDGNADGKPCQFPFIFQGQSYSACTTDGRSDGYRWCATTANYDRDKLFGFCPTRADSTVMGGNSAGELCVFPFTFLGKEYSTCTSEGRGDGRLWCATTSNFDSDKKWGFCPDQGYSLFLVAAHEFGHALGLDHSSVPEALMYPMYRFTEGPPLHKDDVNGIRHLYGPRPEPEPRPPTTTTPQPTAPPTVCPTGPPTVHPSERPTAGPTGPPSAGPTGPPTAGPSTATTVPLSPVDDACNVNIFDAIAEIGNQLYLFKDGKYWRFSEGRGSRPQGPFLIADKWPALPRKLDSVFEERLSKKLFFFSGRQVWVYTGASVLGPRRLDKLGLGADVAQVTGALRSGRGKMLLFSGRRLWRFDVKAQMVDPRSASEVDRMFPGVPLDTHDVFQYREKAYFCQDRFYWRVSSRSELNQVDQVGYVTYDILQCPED
Sequence of neutrophil collagenase (recombinant human) (P22894 101-467): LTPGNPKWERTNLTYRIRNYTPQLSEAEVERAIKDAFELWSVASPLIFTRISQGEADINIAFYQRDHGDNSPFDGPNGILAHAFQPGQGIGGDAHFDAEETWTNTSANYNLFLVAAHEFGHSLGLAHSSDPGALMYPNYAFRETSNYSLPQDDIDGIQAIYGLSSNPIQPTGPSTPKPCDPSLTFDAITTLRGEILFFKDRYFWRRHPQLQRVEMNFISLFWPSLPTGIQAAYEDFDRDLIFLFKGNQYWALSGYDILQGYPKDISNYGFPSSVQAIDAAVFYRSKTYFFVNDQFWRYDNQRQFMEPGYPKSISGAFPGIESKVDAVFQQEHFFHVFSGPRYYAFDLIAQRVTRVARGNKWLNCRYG

CCOc1ccccc1C(=O)N[C@@H](CC(C)C)C(=O)N1Cc2[nH]c3ccccc3c2C[C@H]1C(=O)O [Compound 20, 2-EBZ--(L)--Leu--(S)--Cyt--OH]
IC50 ([1]; read-out: IC50): 130 nM

COc1ccc(C(=O)N[C@@H](CC(C)C)C(=O)N2Cc3[nH]c4ccccc4c3C[C@H]2C(=O)O)cc1OC [Compound 30, 3,4-DMB--(L)--Leu--(S)--Cyt--OH]
IC50 ([1]; read-out: IC50): 380 nM | Residue after 60 Minutes [2]: 100% | Residue after 120 Minutes [2]: > 95%

CC(C)C[C@H](NC(=O)c1cccs1)C(=O)N[C@@H](Cc1c[nH]c2ccccc12)C(=O)O [Tiof--Leu--Trp]
% Inhibition ([3]; Concentration 8.0 × 10^-6 M): 60%

BZS--(L)--Phe--(S)--Cyt--OH [Compound 32]
IC50 ([1]; read-out: IC50): 2000 nM | % Inhibition ([4]; Concentration 1.0 × 10^-5 M): 42%

CC(C)C[C@H](NC(=O)CSc1ncccn1)C(=O)N1Cc2[nH]c3ccccc3c2C[C@H]1C(=O)O [Compound 2, 2-PMTA--(L)--Leu--(S)--Cyt--OH]
IC50 ([1]; read-out: IC50): 230 nM

COc1ccc2c(c1)C(CC(=O)NC(CC(C)C)C(=O)N1Cc3[nH]c4ccccc4c3CC1C(=O)O)CC2=O (mixture of isomers) [Compound 23, 5-MIA--(L)--Leu--(S)--Cyt--OH]
IC50 ([1]; read-out: IC50): 75 nM | % Inhibition ([3]; Concentration 8.0 × 10^-7 M): 40%

CC(C)C[C@H](NC(=O)c1cccc2ccccc12)C(=O)N1Cc2[nH]c3ccccc3c2C[C@H]1C(=O)O [Compound 37, 1-NAF--(L)--Leu--(S)--Cyt--OH]
IC50 ([1]; read-out: IC50): 210 nM

CC(C)C[C@H](NC(=O)c1ccc[nH]1)C(=O)N[C@@H](Cc1c[nH]c2ccccc12)C(=O)O [Pirr--Leu--Trp]
% Inhibition ([5]; Concentration 1.1 × 10^-5 M): 15% | % Inhibition ([3]; Concentration 9.0 × 10^-6 M): 33%

MePro--Ala--Cyt
% Inhibition ([3]; Concentration 9.0 × 10^-6 M): 39%

NC(=O)C[C@H](NC(=O)c1ccco1)C(=O)N1Cc2[nH]c3ccccc3c2C[C@H]1C(=O)O [Compound 35, 2-FUR--(L)--Asn--(S)--Cyt--OH]
IC50 ([1]; read-out: IC50): 8000 nM

O=C(N[C@@H](Cc1c[nH]c2ccccc12)C(=O)N1Cc2[nH]c3ccccc3c2C[C@H]1C(=O)O)c1ccco1 [Compound 34, 2-FUR--(L)--Trp--(S)--Cyt--OH]
IC50 ([1]; read-out: IC50): 400 nM

CC(C)C[C@H](NC(=O)c1ccc2ccccc2n1)C(=O)N1Cc2[nH]c3ccccc3c2C[C@H]1C(=O)O [Compound 16, 2-QIC--(L)--Leu--(S)--Cyt--OH]
IC50 ([1]; read-out: IC50): 28 nM | % Inhibition ([3]; Concentration 8.0 × 10^-7 M): 23% | % Inhibition ([4]; Concentration 1.0 × 10^-5 M): 51%

CC(C)C[C@H](NC(=O)[C@@H](N)CCO)C(=O)N1Cc2[nH]c3ccccc3c2C[C@H]1C(=O)O [Compound 12, (L)--HomoSer--(L)--Leu--(S)--Cyt--OH]
IC50 ([1]; read-out: IC50): 5000 nM

CC(C)C[C@H](NC(=O)c1ccncc1)C(=O)N1Cc2[nH]c3ccccc3c2C[C@H]1C(=O)O [Compound 29, 4-NIC--(L)--Leu--(S)--Cyt--OH]
IC50 ([1]; read-out: IC50): 400 nM

COc1ccccc1CC(=O)N[C@@H](CC(C)C)C(=O)N1Cc2[nH]c3ccccc3c2C[C@H]1C(=O)O [Compound 19, 2-MPA--(L)--Leu--(S)--Cyt--OH]
IC50 ([1]; read-out: IC50): 260 nM

CC(C)C[C@H](NC(=O)c1ccc([N+](=O)[O-])cc1)C(=O)N1Cc2[nH]c3ccccc3c2C[C@H]1C(=O)O [Compound 26, 4-NBZ--(L)--Leu--(S)--Cyt--OH]
IC50 ([1]; read-out: IC50): 95 nM | Residue after 60 Minutes [2]: 100% | Residue after 120 Minutes [2]: > 95%

CC(C)C[C@H](NC(=O)[C@@H]1CCCCN1C(=O)OCc1ccccc1)C(=O)N[C@@H](Cc1c[nH]c2ccccc12)C(=O)O [Z--Pip--Leu--Trp] (Cbz-[Pip]-Leu-Trp-OH)
% Inhibition ([3]; Concentration 9.0 × 10^-6 M): 63%

CC(C)C[C@H](NC(=O)c1cc2cc(O)ccc2[nH]1)C(=O)N1Cc2[nH]c3ccccc3c2C[C@H]1C(=O)O [Compound 7, 5-HIC--(L)--Leu--(S)--Cyt--OH]
IC50 ([1]; read-out: IC50): 23 nM

CC(C)C[C@H](NC(=O)c1ccc(Cl)cc1)C(=O)N1Cc2[nH]c3ccccc3c2C[C@H]1C(=O)O [Compound 27, 4-CBZ--(L)--Leu--(S)--Cyt--OH]
IC50 ([1]; read-out: IC50): 100 nM | % Inhibition ([5]; Concentration 2.1 × 10^-5 M): 28%

MePro--Leu--Cyt
% Inhibition of Invasion [6]: 40% | % Inhibition ([4]; Concentration 1.1 × 10^-5 M): 37%

COc1cc(C(=O)N[C@@H](CC(C)C)C(=O)N2Cc3[nH]c4ccccc4c3C[C@H]2C(=O)O)nc2ccccc12 [Compound 6, 4-MQC--(L)--Leu--(S)--Cyt--OH]
IC50 ([1]; read-out: IC50): 50 nM

CC(C)C[C@H](NC(=O)c1cccnc1)C(=O)N1Cc2[nH]c3ccccc3c2C[C@H]1C(=O)O [Compound 28, 3-NIC--(L)--Leu--(S)--Cyt--OH]
IC50 ([1]; read-out: IC50): 100 nM

COc1ccc2[nH]c(C(=O)N[C@@H](CC3CCCCC3)C(=O)N3Cc4[nH]c5ccccc5c4C[C@H]3C(=O)O)cc2c1 [Compound 1, 5--MIC--Cha--(S)--Cyt--OH]
IC50 [1]: 29 nM | inhibition at 0.7 µM ([3]; Concentration 7.0 × 10^-7 M): 25%

COc1ccc2[nH]c(C(=O)N[C@@H](CC(C)C)C(=O)N3Cc4[nH]c5ccccc5c4C[C@H]3C(=O)O)cc2c1 [Compound 17, 5-MIC--(L)--Leu--(S)--Cyt--OH]
IC50 [1]: 23 nM

Cc1cnc(C(=O)N[C@@H](CC(C)C)C(=O)N2Cc3[nH]c4ccccc4c3C[C@H]2C(=O)O)cn1 [Compound 21, 5-MPZ--(L)--Leu--(S)--Cyt--OH]
IC50 ([1]; read-out: IC50): 44 nM | % Inhibition ([4]; Concentration 5.5 × 10^-6 M): 43%

COc1ccc2[nH]c(C(=O)N[C@@H](Cc3c[nH]c4ccccc34)C(=O)N3Cc4[nH]c5ccccc5c4C[C@H]3C(=O)O)cc2c1 [Compound 14, 5-MIC--(L)--Trp--(S)--Cyt--OH]
IC50 ([1]; read-out: IC50): 47 nM | % Inhibition ([3]; Concentration 6.0 × 10^-7 M): 37%

CC(C)C[C@H](NC(=O)c1nccnc1N)C(=O)N1Cc2[nH]c3ccccc3c2C[C@H]1C(=O)O [Compound 4, 3-APZC--(L)--Leu--(S)--Cyt--OH]
IC50 ([1]; read-out: IC50): 57 nM

COc1ccc2[nH]c(C(=O)N[C@@H](Cc3ccccc3)C(=O)N3Cc4[nH]c5ccccc5c4C[C@H]3C(=O)O)cc2c1 [Compound 8, 5-MIC--(L)--Phe--(S)--Cyt--OH]
IC50 ([1]; read-out: IC50): 100 nM

CC(C)C[C@H](NC(=O)c1ccoc1)C(=O)N1Cc2[nH]c3ccccc3c2C[C@H]1C(=O)O [Compound 13, 3-Furoyl--(L)--Leu--(S)--Cyt--OH]
IC50 ([1]; read-out: IC50): 400 nM | % Inhibition ([3]; Concentration 9.4 × 10^-7 M): 41%

CC(C)C[C@H](NC(=O)CSc1ccncc1)C(=O)N1Cc2[nH]c3ccccc3c2C[C@H]1C(=O)O [Compound 3, 4-PTA--(L)--Leu--(S)--Cyt--OH]
% Inhibition of Invasion [6]: 69% | IC50 ([1]; read-out: IC50): 360 nM | Residue after 60 Minutes [2]: 100% | Residue after 120 Minutes [2]: > 95%

2-FUR--(L)--Phe--(S)--Cyt--OH [Compound 11]
IC50 ([1]; read-out: IC50): 53 nM | Residue after 60 Minutes [2]: 100% | Residue after 120 Minutes [2]: > 95% | % Inhibition ([5]; Concentration 2.2 × 10^-5 M): 27% | % Inhibition ([3]; Concentration 8.7 × 10^-7 M): 40%

COc1ccc(C(=O)N[C@@H](CC(C)C)C(=O)N2Cc3[nH]c4ccccc4c3C[C@H]2C(=O)O)c(OC)c1 [Compound 24, 2,4-Dimethoxybenzoyl--(L)--Leu--(S)--Cyt--OH]
% Inhibition of Invasion [6]: 100% | IC50 ([1]; read-out: IC50): 98 nM | % Inhibition ([5]; Concentration 2.0 × 10^-5 M): 19% | % Inhibition ([4]; Concentration 1.0 × 10^-5 M): 48%

O=C(NCCCC[C@H](NC(=O)c1ccco1)C(=O)N1Cc2[nH]c3ccccc3c2C[C@H]1C(=O)O)OCC1c2ccccc2-c2ccccc21 [Compound 36, 2-FUR--(L)--Lys(Fmoc)--(S)--Cyt--OH]
IC50 ([1]; read-out: IC50): 100 nM

COc1cccc2cc(C(=O)N[C@@H](CC(C)C)C(=O)N3Cc4[nH]c5ccccc5c4C[C@H]3C(=O)O)oc12 [Compound 5, 7-MBF--(L)--Leu--(S)--Cyt--OH]
IC50 ([1]; read-out: IC50): 94 nM
